Legend:
[1] = molecular target: Glycogen synthase kinase-3 beta (Homo sapiens) (UniProt P49841); assay: Inhibition of GSK3-beta at 10 uM; design: scale not given: the % may be the effect or the level left
[2] = molecular target: Receptor tyrosine-protein kinase erbB-2 (Homo sapiens) (UniProt P04626); assay: Inhibition of ErbB2/Her2 at 10 uM; design: scale not given: the % may be the effect or the level left
[3] = molecular target: Insulin-like growth factor 1 receptor (Homo sapiens) (UniProt P08069); assay: Inhibition of IGF1R at 10 uM; design: scale not given: the % may be the effect or the level left
Insulin-like growth factor 1 receptor (Homo sapiens), sequence (P08069 31-736 limits assumed): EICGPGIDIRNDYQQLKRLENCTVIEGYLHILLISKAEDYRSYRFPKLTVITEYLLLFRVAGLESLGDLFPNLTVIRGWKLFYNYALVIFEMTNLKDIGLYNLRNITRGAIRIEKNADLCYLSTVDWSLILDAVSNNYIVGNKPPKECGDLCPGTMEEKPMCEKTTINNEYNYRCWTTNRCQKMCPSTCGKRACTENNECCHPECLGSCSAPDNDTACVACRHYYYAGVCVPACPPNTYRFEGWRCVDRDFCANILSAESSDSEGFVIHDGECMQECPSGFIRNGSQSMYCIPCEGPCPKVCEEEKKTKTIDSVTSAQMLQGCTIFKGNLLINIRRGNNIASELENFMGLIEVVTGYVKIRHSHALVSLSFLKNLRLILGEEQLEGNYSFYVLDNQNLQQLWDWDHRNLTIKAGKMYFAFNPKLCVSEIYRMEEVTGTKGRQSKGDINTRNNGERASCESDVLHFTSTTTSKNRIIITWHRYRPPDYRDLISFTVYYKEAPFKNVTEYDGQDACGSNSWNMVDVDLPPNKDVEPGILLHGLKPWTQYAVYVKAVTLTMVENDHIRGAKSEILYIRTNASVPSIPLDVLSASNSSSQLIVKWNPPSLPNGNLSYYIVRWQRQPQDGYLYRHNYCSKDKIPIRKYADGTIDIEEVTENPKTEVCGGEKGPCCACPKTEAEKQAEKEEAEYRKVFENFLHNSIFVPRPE
Insulin-like growth factor 1 receptor (Homo sapiens), sequence (P08069 741-1367 limits assumed): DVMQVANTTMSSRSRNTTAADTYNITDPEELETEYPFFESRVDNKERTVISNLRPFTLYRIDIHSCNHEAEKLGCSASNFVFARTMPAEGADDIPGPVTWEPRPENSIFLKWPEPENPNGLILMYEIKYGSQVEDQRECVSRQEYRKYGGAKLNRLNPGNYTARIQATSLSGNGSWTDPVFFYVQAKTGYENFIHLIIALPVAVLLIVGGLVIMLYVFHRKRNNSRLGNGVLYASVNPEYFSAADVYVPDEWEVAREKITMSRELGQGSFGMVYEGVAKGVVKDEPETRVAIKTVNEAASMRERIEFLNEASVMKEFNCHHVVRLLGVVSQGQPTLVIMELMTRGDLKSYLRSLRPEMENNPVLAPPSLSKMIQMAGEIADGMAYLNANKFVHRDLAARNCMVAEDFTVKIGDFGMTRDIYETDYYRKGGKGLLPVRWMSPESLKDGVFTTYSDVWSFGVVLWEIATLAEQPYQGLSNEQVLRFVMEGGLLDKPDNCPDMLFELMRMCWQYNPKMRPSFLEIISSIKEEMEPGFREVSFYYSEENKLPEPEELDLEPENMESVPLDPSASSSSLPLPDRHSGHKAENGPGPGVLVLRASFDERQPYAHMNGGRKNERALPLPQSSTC

[4] = molecular target: T1, Vascular endothelial growth factor receptor 2 (Homo sapiens, UniProt P35968); assay: Inhibition of VEGFR2 assessed as inhibition of phosphorylation in human 293 cells by cell-based ELISA; type: functional, HEK293
[5] = molecular target: Vascular endothelial growth factor receptor 1 (Homo sapiens, UniProt P17948); assay: Inhibition of VEGFR1 assessed as inhibition of phosphorylation in presence of 2 uM ATP by HTRF assay; type: functional
Homo sapiens [6] = species: Homo sapiens; assay: Inhibition of PKA at 10 uM; design: scale not given: the % may be the effect or the level left
[7] = molecular target: RAC-alpha serine/threonine-protein kinase (Homo sapiens) (UniProt P31749); assay: Inhibition of PKB/Akt at 10 uM; design: scale not given: the % may be the effect or the level left
RAC-alpha serine/threonine-protein kinase (Homo sapiens), sequence (P31749 whole entry): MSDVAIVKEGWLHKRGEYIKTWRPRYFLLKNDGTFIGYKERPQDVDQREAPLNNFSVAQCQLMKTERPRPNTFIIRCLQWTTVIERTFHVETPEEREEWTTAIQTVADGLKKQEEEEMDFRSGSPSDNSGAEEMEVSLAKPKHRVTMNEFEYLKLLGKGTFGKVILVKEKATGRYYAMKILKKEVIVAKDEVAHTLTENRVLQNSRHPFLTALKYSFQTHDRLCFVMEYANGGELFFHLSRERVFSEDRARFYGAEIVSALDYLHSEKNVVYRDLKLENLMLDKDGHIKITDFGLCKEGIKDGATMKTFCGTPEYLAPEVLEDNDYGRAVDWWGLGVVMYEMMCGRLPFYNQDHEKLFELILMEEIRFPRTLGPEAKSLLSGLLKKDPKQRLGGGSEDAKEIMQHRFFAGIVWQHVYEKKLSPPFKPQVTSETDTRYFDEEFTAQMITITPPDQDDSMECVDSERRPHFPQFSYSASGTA

Homo sapiens [8] = species: Homo sapiens; assay: Inhibition of Cdk1 at 10 uM; design: scale not given: the % may be the effect or the level left
[9] = molecular target: Hepatocyte growth factor receptor (Homo sapiens) (UniProt P08581); assay: Inhibition of cMet at 10 uM; design: scale not given: the % may be the effect or the level left
[10] = molecular target: Receptor-type tyrosine-protein kinase FLT3 (Homo sapiens) (UniProt P36888); assay: Inhibition of Flt3 at 10 uM; design: scale not given: the % may be the effect or the level left
Receptor-type tyrosine-protein kinase FLT3 (Homo sapiens), sequence (P36888 whole entry): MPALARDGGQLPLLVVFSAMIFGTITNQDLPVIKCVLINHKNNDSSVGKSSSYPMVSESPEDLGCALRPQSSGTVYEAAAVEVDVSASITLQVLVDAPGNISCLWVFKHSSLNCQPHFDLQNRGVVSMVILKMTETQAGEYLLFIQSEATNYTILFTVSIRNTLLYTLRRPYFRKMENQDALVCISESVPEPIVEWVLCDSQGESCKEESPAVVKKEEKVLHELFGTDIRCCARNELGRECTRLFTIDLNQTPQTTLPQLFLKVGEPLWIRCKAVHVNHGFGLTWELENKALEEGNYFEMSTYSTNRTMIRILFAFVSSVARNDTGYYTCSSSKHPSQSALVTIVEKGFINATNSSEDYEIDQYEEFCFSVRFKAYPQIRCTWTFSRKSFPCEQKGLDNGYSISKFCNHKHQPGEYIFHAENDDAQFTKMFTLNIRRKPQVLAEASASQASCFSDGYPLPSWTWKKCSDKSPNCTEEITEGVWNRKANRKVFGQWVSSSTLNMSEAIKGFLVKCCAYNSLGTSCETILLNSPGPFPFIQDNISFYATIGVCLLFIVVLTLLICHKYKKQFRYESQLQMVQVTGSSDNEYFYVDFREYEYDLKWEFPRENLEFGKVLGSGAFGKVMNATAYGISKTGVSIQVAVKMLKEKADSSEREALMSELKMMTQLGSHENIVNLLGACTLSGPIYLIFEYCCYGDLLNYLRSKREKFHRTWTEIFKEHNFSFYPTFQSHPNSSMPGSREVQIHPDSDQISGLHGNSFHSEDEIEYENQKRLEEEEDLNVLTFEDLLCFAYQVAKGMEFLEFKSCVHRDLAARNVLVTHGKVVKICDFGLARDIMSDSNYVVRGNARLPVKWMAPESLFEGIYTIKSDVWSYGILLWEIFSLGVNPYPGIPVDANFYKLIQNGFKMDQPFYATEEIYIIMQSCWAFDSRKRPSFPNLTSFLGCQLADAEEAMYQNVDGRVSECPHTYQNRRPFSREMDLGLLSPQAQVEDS

Homo sapiens [11] = species: Homo sapiens; assay: Inhibition of bcr-Abl at 10 uM; design: scale not given: the % may be the effect or the level left
Homo sapiens [12] = species: Homo sapiens; assay: Inhibition of InR at 10 uM; design: scale not given: the % may be the effect or the level left
[13] = molecular target: Fibroblast growth factor receptor 1 (Homo sapiens) (UniProt P11362); assay: Inhibition of FGFR1 at 10 uM; design: scale not given: the % may be the effect or the level left
[14] = molecular target: T1, Vascular endothelial growth factor receptor 2; assay: Inhibition of VEGFR2 assessed as inhibition of phosphorylation in presence of 2 uM ATP by HTRF assay; type: functional
[15] = molecular target: Epidermal growth factor receptor (Homo sapiens) (UniProt P00533); assay: Inhibition of ErbB1 at 10 uM; design: scale not given: the % may be the effect or the level left
[16] = molecular target: Cyclin-dependent kinase 2 (Homo sapiens) (UniProt P24941); assay: Inhibition of Cdk2 at 10 uM; design: scale not given: the % may be the effect or the level left
[17] = molecular target: Vascular endothelial growth factor receptor 3 (Homo sapiens) (UniProt P35916); assay: Inhibition of Flt4 at 10 uM; design: scale not given: the % may be the effect or the level left
[18] = molecular target: RAF proto-oncogene serine/threonine-protein kinase (Homo sapiens) (UniProt P04049); assay: Inhibition of Raf1 at 10 uM; design: scale not given: the % may be the effect or the level left

Receptor tyrosine-protein kinase erbB-2 (Homo sapiens), sequence (P04626 whole entry): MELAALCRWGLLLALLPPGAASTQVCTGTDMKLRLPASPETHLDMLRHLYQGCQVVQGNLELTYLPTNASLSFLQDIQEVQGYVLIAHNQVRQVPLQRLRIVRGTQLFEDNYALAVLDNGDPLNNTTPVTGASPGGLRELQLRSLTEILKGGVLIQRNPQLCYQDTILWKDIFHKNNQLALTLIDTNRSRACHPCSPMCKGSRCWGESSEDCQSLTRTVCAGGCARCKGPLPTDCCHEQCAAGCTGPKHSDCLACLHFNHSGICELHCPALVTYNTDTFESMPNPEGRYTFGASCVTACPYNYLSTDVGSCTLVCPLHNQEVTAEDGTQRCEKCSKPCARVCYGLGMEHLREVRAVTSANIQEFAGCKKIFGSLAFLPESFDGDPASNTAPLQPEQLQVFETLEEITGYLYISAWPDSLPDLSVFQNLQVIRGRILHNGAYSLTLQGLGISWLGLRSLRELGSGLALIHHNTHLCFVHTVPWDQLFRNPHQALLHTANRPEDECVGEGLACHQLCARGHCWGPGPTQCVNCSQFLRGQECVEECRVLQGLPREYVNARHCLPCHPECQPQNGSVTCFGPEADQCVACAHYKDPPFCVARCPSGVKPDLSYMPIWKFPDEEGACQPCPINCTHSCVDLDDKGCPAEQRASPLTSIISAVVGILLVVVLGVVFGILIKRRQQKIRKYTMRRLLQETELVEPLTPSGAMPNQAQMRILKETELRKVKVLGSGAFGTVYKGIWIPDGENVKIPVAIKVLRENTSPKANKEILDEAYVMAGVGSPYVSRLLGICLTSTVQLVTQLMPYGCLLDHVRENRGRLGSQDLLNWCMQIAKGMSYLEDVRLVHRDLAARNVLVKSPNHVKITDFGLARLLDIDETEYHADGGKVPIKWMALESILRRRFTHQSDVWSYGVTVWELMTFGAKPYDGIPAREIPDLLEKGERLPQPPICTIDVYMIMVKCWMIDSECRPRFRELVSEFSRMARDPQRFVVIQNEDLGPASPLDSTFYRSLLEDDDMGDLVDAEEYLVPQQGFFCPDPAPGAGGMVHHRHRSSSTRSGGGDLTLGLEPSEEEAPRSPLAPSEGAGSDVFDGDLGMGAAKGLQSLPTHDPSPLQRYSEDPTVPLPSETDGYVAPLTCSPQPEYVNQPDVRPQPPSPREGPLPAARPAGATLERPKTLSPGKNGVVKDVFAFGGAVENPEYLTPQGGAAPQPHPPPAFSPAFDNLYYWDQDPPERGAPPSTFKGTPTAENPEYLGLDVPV
Glycogen synthase kinase-3 beta (Homo sapiens), sequence (P49841 whole entry, looked up): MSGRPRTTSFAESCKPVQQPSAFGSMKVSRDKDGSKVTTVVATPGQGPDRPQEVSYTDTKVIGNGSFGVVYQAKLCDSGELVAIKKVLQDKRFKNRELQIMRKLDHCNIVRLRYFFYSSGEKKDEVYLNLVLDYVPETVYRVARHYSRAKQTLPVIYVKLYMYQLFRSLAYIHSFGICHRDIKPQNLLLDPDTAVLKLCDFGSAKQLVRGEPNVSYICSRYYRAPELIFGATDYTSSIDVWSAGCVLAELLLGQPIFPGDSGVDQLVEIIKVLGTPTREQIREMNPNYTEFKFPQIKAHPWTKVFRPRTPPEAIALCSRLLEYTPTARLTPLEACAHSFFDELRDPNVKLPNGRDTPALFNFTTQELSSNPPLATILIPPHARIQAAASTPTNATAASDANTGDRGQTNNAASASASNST

Row | Activity [1] [%] | Activity [2] [%] | Activity [3] [%] | IC50 [4] [µM] | IC50 [5] [µM] | Activity (Homo sapiens [6]) [%] | Activity [7] [%] | Activity (Homo sapiens [8]) [%] | Activity [9] [%] | Activity [10] [%] | Activity (Homo sapiens [11]) [%] | Activity (Homo sapiens [12]) [%] | Activity [13] [%] | IC50 [14] [µM] | Activity [15] [%] | Activity [16] [%] | Activity [17] [%] | Activity [18] [%] | Compound
1 | > 30 | > 30 | > 30 | > 10 | > 10 | > 30 | > 30 | > 30 | > 30 | > 30 | > 30 | > 30 | > 30 | > 10 | < 30 | > 30 | > 30 | > 30 | O=C(Nc1ccc(OC(F)(F)F)cc1)c1cc2ccccc2n1CCc1ccncc1
2 | > 30 | > 30 | > 30 | > 10 | > 10 | > 30 | > 30 | > 30 | > 30 | > 30 | > 30 | > 30 | > 30 | > 10 | < 30 | > 30 | > 30 | > 30 | O=C(Nc1ccc(Cl)cc1)c1ccnn1CCc1cccnc1
3 | > 30 | > 30 | > 30 | > 10 | > 10 | > 30 | > 30 | > 30 | > 30 | > 30 | > 30 | > 30 | > 30 | > 10 | < 30 | > 30 | > 30 | > 30 | O=C(Nc1ccc(OC(F)(F)F)cc1)c1nc2ccccc2n1CCc1ccncc1
4 | > 30 | > 30 | > 30 | > 10 | > 10 | > 30 | > 30 | > 30 | > 30 | > 30 | > 30 | > 30 | > 30 | > 10 | < 30 | > 30 | > 30 | > 30 | O=C(Nc1ccc(C(F)(F)F)c(Cl)c1)c1nnnn1CCc1ccncc1
5 | > 30 | > 30 | > 30 | > 10 | > 10 | > 30 | > 30 | > 30 | > 30 | > 30 | > 30 | > 30 | > 30 | > 10 | < 30 | > 30 | > 30 | > 30 | Cc1nn(CCc2ccncc2)c(C(=O)Nc2ccc(Cl)cc2)c1C
6 | > 30 | > 30 | > 30 | 1.32 | 0.94 | > 30 | > 30 | > 30 | > 30 | > 30 | > 30 | > 30 | > 30 | 0.38 | < 30 | > 30 | > 30 | > 30 | O=C(Nc1ccc(Cl)cc1)c1nccn1CCc1ccncc1
7 | > 30 | > 30 | > 30 | > 10 | > 10 | > 30 | > 30 | > 30 | > 30 | > 30 | > 30 | > 30 | > 30 | > 10 | < 30 | > 30 | > 30 | > 30 | O=C(Nc1ccc(Cl)cc1)c1ccnn1CCc1ccc(F)c(F)c1
8 | > 30 | > 30 | > 30 | 1.34 | 2.25 | > 30 | > 30 | > 30 | > 30 | > 30 | > 30 | > 30 | > 30 | 1.19 | < 30 | > 30 | > 30 | > 30 | Cc1cc(C(=O)Nc2ccc(OC(F)(F)F)cc2)n(CCc2ccncc2)n1
9 | > 30 | > 30 | > 30 | > 10 | > 10 | > 30 | > 30 | > 30 | > 30 | > 30 | > 30 | > 30 | > 30 | > 10 | < 30 | > 30 | > 30 | > 30 | O=C(Nc1ccc(Cl)cc1)c1ccnn1CCc1noc2ccccc12
10 | > 30 | > 30 | > 30 | > 10 | > 10 | > 30 | > 30 | > 30 | > 30 | > 30 | > 30 | > 30 | > 30 | > 10 | < 30 | > 30 | > 30 | > 30 | O=C(Nc1ccc(Cl)cc1)c1ccnn1CCc1cnoc1
11 | > 30 | > 30 | > 30 | > 10 | 5.25 | > 30 | > 30 | > 30 | > 30 | > 30 | > 30 | > 30 | > 30 | 3.22 | < 30 | > 30 | > 30 | > 30 | O=C(Nc1ccc(Oc2ccccc2)cc1)c1ccnn1CCc1ccncc1
12 | > 30 | > 30 | > 30 | > 10 | > 10 | > 30 | > 30 | > 30 | > 30 | > 30 | > 30 | > 30 | > 30 | > 10 | < 30 | > 30 | > 30 | > 30 | Cc1nn(CCc2ccncc2)c(C(=O)Nc2ccc(OC(F)(F)F)cc2)c1C
13 | > 30 | > 30 | > 30 | 4.95 | 4.56 | > 30 | > 30 | > 30 | > 30 | > 30 | > 30 | > 30 | > 30 | 1.31 | < 30 | > 30 | > 30 | > 30 | O=C(Nc1ccc(C(F)(F)F)c(Cl)c1)c1nccn1CCc1ccncc1
14 | > 30 | > 30 | > 30 | > 10 | > 10 | > 30 | > 30 | > 30 | > 30 | > 30 | > 30 | > 30 | > 30 | > 10 | < 30 | > 30 | > 30 | > 30 | O=C(Nc1ccc(Cl)cc1)c1nc2ccccc2n1CCc1ccncc1
15 | > 30 | > 30 | > 30 | > 10 | > 10 | > 30 | > 30 | > 30 | > 30 | > 30 | > 30 | > 30 | > 30 | > 10 | < 30 | > 30 | > 30 | > 30 | O=C(Nc1ccc(OCc2ccccc2)cc1)c1ccnn1CCc1ccncc1
16 | > 30 | > 30 | > 30 | 0.12 | 0.86 | > 30 | > 30 | > 30 | > 30 | > 30 | > 30 | > 30 | > 30 | 0.26 | < 30 | > 30 | > 30 | > 30 | O=C(Nc1ccc(Cl)c(Cl)c1)c1ccnn1CCc1ccncc1
17 | > 30 | > 30 | > 30 | > 10 | > 10 | > 30 | > 30 | > 30 | > 30 | > 30 | > 30 | > 30 | > 30 | > 10 | < 30 | > 30 | > 30 | > 30 | O=C(Nc1ccc2cn[nH]c2c1)c1ccnn1CCc1ccncc1
